From PubChem BioAssay AID1963964 (Molecular Pharmacology Branch, DTP, NCI, 2024)
pIC50: −log10 of the molar value.

System: 997726-040-R-J2-PDC tumor spheroids, viability
Assay: Anticancer human tumor 997726-040-R-J2-PDC patient-derived squamous cell lung carcinoma cell line growth inhibition [PI3K]
Settings: spheroids with HUVEC and MSC; for pIC50: curve of first compound; for viability, T/C: stronger effect = lower value
In short: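 Agents were dosed from a top concentration near clinical Cmax (otherwise 10 microM) in half-log decrements, alone or combined with PI3K inhibitors. The spheroids contain tumor cells plus endothelial (HUVEC) and MSC stroma; viability is measured.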
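Further: spheroids exposed to compounds for seven days before readout.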

Cn1cnc2c(F)c(Nc3ccc(Br)cc3Cl)c(C(=O)NOCCO)cc21 + COc1c(OCCCN2CCOCC2)ccc2c3n(c(=NC(=O)c4cnc(N)nc4)nc12)CCN3
pIC50 (second compound 0.00316 µM): 7.34
pIC50 (second compound 0.01 µM): > 8.02
pIC50 (second compound 0.0316 µM): > 8.02
pIC50 (second compound 0.1 µM): > 8.02
pIC50 (second compound 0.316 µM): > 8.02
pIC50 (second compound 1 µM): > 8.02
viability, T/C (second compound 0.00316 µM, first compound 0.00949 µM): 60.5%
viability, T/C (second compound 0.00316 µM, first compound 0.03 µM): 55.1%
viability, T/C (second compound 0.00316 µM, first compound 0.0949 µM): 39.2%
viability, T/C (second compound 0.00316 µM, first compound 0.3 µM): 46.1%
viability, T/C (second compound 0.00316 µM, first compound 0.949 µM): 38%
viability, T/C (second compound 0.00316 µM, first compound 3 µM): 33.2%
viability, T/C (second compound 0.01 µM, first compound 0.00949 µM): 44.3%
viability, T/C (second compound 0.01 µM, first compound 0.03 µM): 43%
viability, T/C (second compound 0.01 µM, first compound 0.0949 µM): 39.1%
viability, T/C (second compound 0.01 µM, first compound 0.3 µM): 36.5%
viability, T/C (second compound 0.01 µM, first compound 0.949 µM): 28.6%
viability, T/C (second compound 0.01 µM, first compound 3 µM): 27.5%
viability, T/C (second compound 0.0316 µM, first compound 0.00949 µM): 36.6%
viability, T/C (second compound 0.0316 µM, first compound 0.03 µM): 33.4%
viability, T/C (second compound 0.0316 µM, first compound 0.0949 µM): 26.2%
viability, T/C (second compound 0.0316 µM, first compound 0.3 µM): 24.6%
viability, T/C (second compound 0.0316 µM, first compound 0.949 µM): 24.1%
viability, T/C (second compound 0.0316 µM, first compound 3 µM): 16.7%
viability, T/C (second compound 0.1 µM, first compound 0.00949 µM): 20.8%
viability, T/C (second compound 0.1 µM, first compound 0.03 µM): 20.8%
viability, T/C (second compound 0.1 µM, first compound 0.0949 µM): 15.6%
viability, T/C (second compound 0.1 µM, first compound 0.3 µM): 15.2%
viability, T/C (second compound 0.1 µM, first compound 0.949 µM): 14.7%
viability, T/C (second compound 0.1 µM, first compound 3 µM): 7.1%
viability, T/C (second compound 0.316 µM, first compound 0.00949 µM): 5.7%
viability, T/C (second compound 0.316 µM, first compound 0.03 µM): 5.13%
viability, T/C (second compound 0.316 µM, first compound 0.0949 µM): 2.49%
viability, T/C (second compound 0.316 µM, first compound 0.3 µM): 2.68%
viability, T/C (second compound 0.316 µM, first compound 0.949 µM): 1.51%
viability, T/C (second compound 0.316 µM, first compound 3 µM): 0.35%
viability, T/C (second compound 1 µM, first compound 0.00949 µM): 2.27%
viability, T/C (second compound 1 µM, first compound 0.03 µM): 1.05%
viability, T/C (second compound 1 µM, first compound 0.0949 µM): 0.66%
viability, T/C (second compound 1 µM, first compound 0.3 µM): 0.55%
viability, T/C (second compound 1 µM, first compound 0.949 µM): 0.39%
viability, T/C (second compound 1 µM, first compound 3 µM): 0.27%

C=CC(=O)N1CCN(c2nc(=O)n(-c3c(C)ccnc3C(C)C)c3nc(-c4c(O)cccc4F)c(F)cc23)C(C)C1 (centres undefined) + Cc1nc(NC(=O)N2CCCC2C(N)=O)sc1-c1ccnc(C(C)(C)C(F)(F)F)c1
pIC50 (second compound 0.0316 µM): < 5.00
pIC50 (second compound 0.1 µM): < 5.00
pIC50 (second compound 0.316 µM): < 5.00
pIC50 (second compound 1 µM): > 7.50
pIC50 (second compound 3.16 µM): > 7.50
pIC50 (second compound 10 µM): > 7.50
viability, T/C (second compound 0.0316 µM, first compound 0.0316 µM): 82.8%
viability, T/C (second compound 0.0316 µM, first compound 0.1 µM): 84.3%
viability, T/C (second compound 0.0316 µM, first compound 0.316 µM): 101%
viability, T/C (second compound 0.0316 µM, first compound 1 µM): 108%
viability, T/C (second compound 0.0316 µM, first compound 3.16 µM): 102%
viability, T/C (second compound 0.0316 µM, first compound 10 µM): 109%
viability, T/C (second compound 0.1 µM, first compound 0.0316 µM): 76.3%
viability, T/C (second compound 0.1 µM, first compound 0.1 µM): 72.7%
viability, T/C (second compound 0.1 µM, first compound 0.316 µM): 71.1%
viability, T/C (second compound 0.1 µM, first compound 1 µM): 86.8%
viability, T/C (second compound 0.1 µM, first compound 3.16 µM): 101%
viability, T/C (second compound 0.1 µM, first compound 10 µM): 89.3%
viability, T/C (second compound 0.316 µM, first compound 0.0316 µM): 53.3%
viability, T/C (second compound 0.316 µM, first compound 0.1 µM): 55.9%
viability, T/C (second compound 0.316 µM, first compound 0.316 µM): 61%
viability, T/C (second compound 0.316 µM, first compound 1 µM): 59.5%
viability, T/C (second compound 0.316 µM, first compound 3.16 µM): 63.6%
viability, T/C (second compound 0.316 µM, first compound 10 µM): 65.6%
viability, T/C (second compound 1 µM, first compound 0.0316 µM): 40.8%
viability, T/C (second compound 1 µM, first compound 0.1 µM): 41.8%
viability, T/C (second compound 1 µM, first compound 0.316 µM): 45%
viability, T/C (second compound 1 µM, first compound 1 µM): 39.8%
viability, T/C (second compound 1 µM, first compound 3.16 µM): 52%
viability, T/C (second compound 1 µM, first compound 10 µM): 46.2%
viability, T/C (second compound 3.16 µM, first compound 0.0316 µM): 30.9%
viability, T/C (second compound 3.16 µM, first compound 0.1 µM): 28.6%
viability, T/C (second compound 3.16 µM, first compound 0.316 µM): 33.6%
viability, T/C (second compound 3.16 µM, first compound 1 µM): 28.6%
viability, T/C (second compound 3.16 µM, first compound 3.16 µM): 34.1%
viability, T/C (second compound 3.16 µM, first compound 10 µM): 32.2%
viability, T/C (second compound 10 µM, first compound 0.0316 µM): 16.2%
viability, T/C (second compound 10 µM, first compound 0.1 µM): 16%
viability, T/C (second compound 10 µM, first compound 0.316 µM): 15.9%
viability, T/C (second compound 10 µM, first compound 1 µM): 17.4%
viability, T/C (second compound 10 µM, first compound 3.16 µM): 22%
viability, T/C (second compound 10 µM, first compound 10 µM): 9.67%
